Source: patent US9198433B2, “Substituted benzene fungicides” (E I DU PONT DE NEMOURS AND COMPANY, priority 2007, dated 2015)
Where two headings read alike, the source gives them in different places. Marks after values point to notes of the source that are not given here.

Assays:
Type in all cases: in vivo
[1] = test system: Erysiphe graminis f. sp. tritici; assay: Test A: wheat powdery mildew, preventive spray on wheat seedlings, disease rating
Outline: (§1)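 Compounds were dissolved in acetone (3% of final volume), then suspended in 50/50 acetone/water with 250 ppm polyhydric alcohol ester surfactant and sprayed to run-off on wheat seedlings. Unless marked otherwise, values are at 200 ppm (equivalent to 500 g/ha); some are at 40 or 50 ppm.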

[2] = test system: Puccinia recondita f. sp. tritici; assay: Test B: wheat leaf rust, preventive spray on wheat seedlings, disease rating
Outline: as §1

[3] = test system: Septoria nodorum; assay: Test C: wheat glume blotch, preventive spray on wheat seedlings, disease rating
Outline: as §1

[4] = test system: Septoria tritici; assay: Test D: wheat leaf blotch, preventive spray on wheat seedlings, disease rating
Outline: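 Wheat seedlings sprayed to run-off with compound in acetone/water containing 250 ppm Trem 014 (200 ppm ≈ 500 g/ha; some results at 40 or 50 ppm), inoculated next day with Septoria tritici spores. Held 48 h saturated at 24 °C, then 19 days at 20 °C before disease rating.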

[5] = test system: Fusarium graminearum; conditions: wheat head scab
[6] = test system: Botrytis cinerea; assay: Test F: tomato Botrytis, preventive spray on tomato seedlings, disease rating
Outline: (§2)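 Tomato seedlings sprayed to run-off, as a preventive treatment, with compound suspended in acetone/water (50/50) containing 250 ppm Trem 014 surfactant; 200 ppm equals 500 g/ha. Disease then rated. Values are at 200 ppm unless marked * (40 ppm) or ** (50 ppm).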

[7] = test system: Alternaria solani; assay: Test H: tomato early blight, preventive spray on tomato seedlings, disease rating
Outline: as §2

[8] = test system: Rhizoctonia oryzae; assay: Test I: turf brown patch, preventive spray on creeping bent grass seedlings, disease rating
Source text: The test compounds were first dissolved in acetone in an amount equal to 3% of the final volume and then suspended at the desired concentration (in ppm) in acetone and purified water (50/50 mix) containing 250 ppm of the surfactant Trem® 014 (polyhydric alcohol esters). The resulting test suspensions were then used in Tests A-L. Spraying a 200 ppm test suspension to the point of run-off on the test plants was the equivalent of an application rate of 500 g/ha. The test suspension was sprayed to the point of run-off on creeping bent grass seedlings. […] A dash (-) indicates no test results. All results are for 200 ppm except where followed by an “*”, which indicates 40 ppm or “**”, which indicates 50 ppm.

[9] = test system: Phytophthora infestans; conditions: 40 ppm (*); tomato late blight
[10] = test system: Plasmopara viticola; assay: Test K: grape downy mildew, spray on grape seedlings after inoculation, disease rating
Source text: The test compounds were first dissolved in acetone in an amount equal to 3% of the final volume and then suspended at the desired concentration (in ppm) in acetone and purified water (50/50 mix) containing 250 ppm of the surfactant Trem® 014 (polyhydric alcohol esters). The resulting test suspensions were then used in Tests A-L. Spraying a 200 ppm test suspension to the point of run-off on the test plants was the equivalent of an application rate of 500 g/ha. Grape seedlings were inoculated with a spore suspension of Plasmopara viticola (the causal agent of grape downy mildew) and incubated in a saturated atmosphere at 20° C. for 24 h. After a short drying period, the test suspension was sprayed to the point of run-off on the grape seedlings and then moved to a growth chamber at 20° C. for 6 days, after which the test units were placed back into a saturated atmosphere at 20° C. for 24 h. Upon removal, disease ratings were made. […] A dash (-) indicates no test results. All results are for 200 ppm except where followed by an “*”, which indicates 40 ppm or “**”, which indicates 50 ppm.

[11] = test system: Pythium aphanidermatum; assay: Test L: bluegrass pythium blight, preventive spray on bluegrass seedlings, disease rating; conditions: 40 ppm (*)
Source text: The test compounds were first dissolved in acetone in an amount equal to 3% of the final volume and then suspended at the desired concentration (in ppm) in acetone and purified water (50/50 mix) containing 250 ppm of the surfactant Trem® 014 (polyhydric alcohol esters). The resulting test suspensions were then used in Tests A-L. Spraying a 200 ppm test suspension to the point of run-off on the test plants was the equivalent of an application rate of 500 g/ha. The test suspension was sprayed to the point of run-off on bluegrass seedlings. […] A dash (-) indicates no test results. All results are for 200 ppm except where followed by an “*”, which indicates 40 ppm or “**”, which indicates 50 ppm.

[12] = 200 ppm, 100 = 100% disease control, 0 = no control relative to controls
[13] = 40 ppm (*), 100 = 100% disease control, 0 = no control relative to controls

| Compound | Percentage Disease Control, Test A ([1]; 40 ppm (*)) | Percentage Disease Control, Test B ([2]; 40 ppm (*)) | Percentage Disease Control, Test C ([3]; 40 ppm (*)) | Percentage Disease Control, Test D ([4]; 40 ppm (*)) | Percentage Disease Control, Test F ([6]; 200 ppm) [%] | Percentage Disease Control, Test H ([7]; 200 ppm) [%] | Percentage Disease Control, Test C ([3]; 200 ppm) [%] | Percentage Disease Control, Test E ([5]; 40 ppm (*)) | also measured |
| --- | --- | --- | --- | --- | --- | --- | --- | --- | --- |
| COC(=O)NCc1cc(-c2ccn(CCCC(c3ccc(F)cc3)c3ccc(F)cc3)n2)ccc1Cl [Cmpd 36] | 93* % | 99* % | 99* % | 97* % | 0 | 78 |  |  | Percentage Disease Control, Test E ([5]; 200 ppm): 26% |
| COC(=O)NCc1cc(-c2nn(CCC[Si](C)(C)C)cc2Cl)ccc1Cl [Cmpd 47] | 98* % | 100* % | 100* % | 99* % | 0 | 66 |  |  | Percentage Disease Control, Test E ([5]; 200 ppm): 94% |
| COC(=O)NCc1cc(-c2ccn(CCCF)n2)ccc1Cl [Cmpd 43] |  |  |  |  | 0 | 0 | 95 |  | Percentage Disease Control, Test A ([1]; 200 ppm): 91%; Percentage Disease Control, Test B ([2]; 200 ppm): 99%; Percentage Disease Control, Test D ([4]; 200 ppm): 93%; Percentage Disease Control, Test E ([5]; 200 ppm): 94% |
| COC(=O)NCc1cc(-c2cc(C(F)(F)F)n(CCC[Si](C)(C)C)n2)ccc1Cl [Cmpd 45] | 99* % | 100* % |  | 99* % | 0 | 0 | 100 |  | Percentage Disease Control, Test E ([5]; 200 ppm): 26% |
| COC(=O)NCc1cc(-c2cc(C)n(CCC[Si](C)(C)C)n2)ccc1Cl [Cmpd 40] | 99* % | 100* % | 99* % | 100* % |  |  |  | 13* % | Percentage Disease Control, Test F ([6]; 40 ppm (*)): 0* %; Percentage Disease Control, Test H ([7]; 40 ppm (*)): 50* % |
| CCCCn1ccc(-c2ccc(Cl)c(CNC(=O)OC)c2)n1 [Cmpd 46] | 94* % | 99* % |  | 91* % | 0 | 0 | 99 | 94* % |  |
| COC(=O)NCc1cc(-c2ccn(CCC#N)n2)ccc1Cl [Cmpd 31] | 0* % | 0* % | 0* % | 69* % |  |  |  |  | Percentage Disease Control, Test F ([6]; 40 ppm (*)): 0* %; Percentage Disease Control, Test H ([7]; 40 ppm (*)): 0* %; Percentage Disease Control, Test I ([8]; 40 ppm (*)): 0* %; Percentage Disease Control, Test J [9]: 0* %; Percentage Disease Control, Test K ([10]; 40 ppm (*)): 20* %; Percentage Disease Control, Test L [11]: 0* % |
| CC[Si](C)(C)CON=C(C)c1ccc(Cl)c(CNC(=O)OC)c1 [Compound 7] | 100* % | 100* % | 99* % | 100* % |  |  |  | 0* % |  |
| COC(=O)NCc1cc(C(C)=NOC[Si](C)(C)C)ccc1Cl [Compound 6] | 99* % | 100* % | 96* % | 100* % |  |  |  | 68* % |  |
| COC(=O)NCc1cc(-c2ccn(S(=O)(=O)N(C)C)n2)ccc1Cl [Cmpd 35] |  |  |  |  | 0 | 0 | 0 |  | Percentage Disease Control, Test A ([1]; 200 ppm): 76%; Percentage Disease Control, Test B ([2]; 200 ppm): 76%; Percentage Disease Control, Test D ([4]; 200 ppm): 100%; Percentage Disease Control, Test E ([5]; 200 ppm): 0% |
| COC(=O)NOc1cc(-c2cccc(Cl)c2)ccc1Cl [Cmpd 19] | 99* % | 99* % | 97* % | 98* % |  |  |  | 99* % | Percentage Disease Control, Test F ([6]; 40 ppm (*)): 0* %; Percentage Disease Control, Test H ([7]; 40 ppm (*)): 63* % |
| COC(=O)NCc1cc(-c2ccn(CCCC(C)C)n2)ccc1Cl [Cmpd 41] |  | 100* % |  | 98* % | 0 | 0 | 100 | 99* % | Percentage Disease Control, Test A ([1]; 200 ppm): 99% |
| COC(=O)NCc1cc(-c2ccn(CCCc3ccccc3)n2)ccc1Cl [Cmpd 42] | 98* % | 100* % | 100* % | 100* % | 0 | 0 |  | 100* % |  |
| COC(=O)NCc1cc(-c2cnn(CCC[Si](C)(C)C)c2)ccc1Cl [Cmpd 126] |  |  |  |  |  |  |  |  | Percentage Disease Control, Test A [1, 12]: 95%; Percentage Disease Control, Test B [2, 13]: 98* %; Percentage Disease Control, Test C [3, 12]: 99%; Percentage Disease Control, Test D [4, 13]: 97* %; Percentage Disease Control, Test E [5, 12]: 0%; Percentage Disease Control, Test F [6, 12]: 0%; Percentage Disease Control, Test H [7, 12]: 0% |
| COC(=O)NCc1cc(-c2ccn(Cc3ccccc3Cl)n2)ccc1Cl [Cmpd 37] | 99* % | 100* % | 100* % | 100* % | 0 | 0 |  | 99* % |  |
| COC(=O)NCc1cc(-c2ccn(-c3cccc(C(F)(F)F)c3)n2)ccc1Cl [Cmpd 50] | 100* % | 99* % | 100* % | 100* % | 0 | 55 |  | 97* % |  |
| COC(=O)NCc1cc(-c2ccn(-c3ccc(C)cn3)n2)ccc1Cl [Cmpd 48] | 65* % | 100* % | 99* % | 99* % |  |  |  | 94* % | Percentage Disease Control, Test F ([6]; 40 ppm (*)): 0* %; Percentage Disease Control, Test H ([7]; 40 ppm (*)): 99* % |
| COC(=O)NCc1cc(-c2ccn(-c3cccc(C)n3)n2)ccc1Cl [Cmpd 49] |  | 100* % |  | 100* % | 0 |  | 99 | 99* % | Percentage Disease Control, Test A ([1]; 200 ppm): 79%; Percentage Disease Control, Test H ([7]; 40 ppm (*)): 99* % |
| C#CCCCn1ccc(-c2ccc(Cl)c(CNC(=O)OC)c2)n1 [Cmpd 24] | 96* % | 99* % | 99* % |  | 0 | 0 |  | 96* % | Percentage Disease Control, Test I ([8]; 200 ppm): 0%; Percentage Disease Control, Test J [9]: 0* %; Percentage Disease Control, Test K ([10]; 200 ppm): 83% |
| C#CCCCn1nc(-c2ccc(Cl)c(CNC(=O)OC)c2)cc1C [Cmpd 39] | 99* % | 100* % | 99* % | 100* % | 0 | 0 |  | 91* % |  |
